Each block holds one compound with its values, some of them ahead of it.
What was measured:
[1] = biological target: T1, purified 11β-HSD1 (recombinant, expressed in E. coli) (Homo sapiens, UniProt P28845); assay: Inhibition of purified 11β-HSD1, Scintillation Proximity Assay; assay type: biochemical; settings: recombinant enzyme, 3H cortisone, NADPH, room temperature
T1 construct: made in house; host or cells: E. coli
Protocol: (§1) The inhibition of purified 11β-HSD1 by compounds of Formula I was measured as follows using a Scintillation Proximity Assay. All reactions were carried out at room temperature in 96 well flexible Microbeta reaction plates. The assay begins by adding 1 microliter of a 0.1 mM solution of a compound of Formula I in DMSO previously diluted in half-log increments (8 points) starting at 1 micromolar final concentration. To this dot was added 50 microliters of substrate solution (50 mM HEPES, pH 7.4, 100 mM KCl, 5 mM NaCl, 2 mM MgCl2 containing […] of ^3H cortisone, 1 mM NADPH). After a 10 minute incubation, 50 microliters of enzyme solution containing 20 nM recombinant 11β-HSD1 (expressed in E. coli, and affinity purified) was added, The reaction was incubated for 90 minutes, and stopped by adding 50 microliters of SPA bead mix (18-β-glycyrrhetinic acid, 10 micromolar final, 5 mg/ml protein A coated YSi SPA beads, and 1-microgram/ml alpha-cortisol antibody (East Coast Biologics). The plate shaken for 120 minutes, and the radioactivity corresponding to ^3H cortisol was measured on a Wallac Microbeta.

[2] = biological target: microsomal 11β-HSD1 (Homo sapiens, UniProt P28845); assay: Inhibition of microsomal 11β-HSD1, Scintillation Proximity Assay; assay type: biochemical; settings: microsomal enzyme, same manner as purified enzyme assay
microsomal 11β-HSD1, sequence (P28845 whole entry): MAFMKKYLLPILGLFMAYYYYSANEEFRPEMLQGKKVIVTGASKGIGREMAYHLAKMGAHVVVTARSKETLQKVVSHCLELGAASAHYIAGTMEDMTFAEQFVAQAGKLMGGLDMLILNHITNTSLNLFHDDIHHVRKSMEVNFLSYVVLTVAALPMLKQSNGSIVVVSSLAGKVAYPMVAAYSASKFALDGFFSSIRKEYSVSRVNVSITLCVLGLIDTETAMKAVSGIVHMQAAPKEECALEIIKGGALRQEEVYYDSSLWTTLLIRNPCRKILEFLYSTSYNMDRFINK
Protocol: as §1
The inhibition of microsomal 11β-HSD1 was carried out in the same manner.

[3] = biological target: T2, 11β-HSD1 in whole cells (omental adipocytes) (Homo sapiens, UniProt P28845); assay: Inhibition of 11β-HSD1 in whole cells (omental adipocytes), cortisone to cortisol conversion, SPA; assay type: cell-based; settings: 100 nM [3H] cortisone, 37 degrees C
T2 construct: host or cells: omental adipocytes differentiated from preadipocytes
T2 sequence (P28845 whole entry): as above
Protocol: The inhibition of 11β-HSD1 by compounds of Formula I in whole cells was measured as follows. Omental adipocytes cultured in 96-well plates were purchased from Zen-Bio, Inc. and used at least two weeks after differentiation from precursor preadipocytes started in medium supplemented with adipogenic and lipogenic hormones (human insulin, dexamethasone, isobutylmethylxanthine and PPAR-gamma agonist). The cells were maintained in full adipocyte medium (DMEM/Ham's F-12 (1:1, v/v), HEPES pH 7.4, fetal bovine serum, penicillin, streptomycin and Amphotericin B, supplied by Zen-Bio, Inc.) at 37 degrees C., 5% CO2 and transferred into serum-free, phenol red free medium for overnight incubation. The assay was performed in a total volume of 200 microliters. The cells were pre-incubated with serum-free, phenol red free medium containing 0.1% (v/v) of DMSO and various concentrations of compounds of Formula I at least 1 h before [^3H] cortisone in ethanol (50 Ci/mmol, ARC, Inc.) was added to achieve final concentration of cortisone of 100 nM. The cells were incubated for 3-4 at 37 degrees Centigrade, 5% CO2. Negative controls were incubated without radioactive substrate and received the same amount of [^3H] cortisone at the end of the incubation. Formation of [^3H] cortisol was monitored by analyzing 25 microliters of each supernatant in scintillation proximity assay (SPA). (Solly, K.; Mundt, S. S.; Zokian, H. J.; Ding, G. J.; Hermanowski-Vosatka, A.; Strulovici, B.; Zheng, W. Assay Drug Dev. Technol. 2005, 3, 377-384),

T1 sequence (P28845 whole entry): as above

Structure (SMILES): O=C1OC(c2cccc(Cl)c2)CN1CC12CC3CC(CC(C3)C1)C2 (racemic) [Example 9, (±)-3((1-adamantyl)methyl)-5-(3-chlorophenyl)oxazolidin-2-one]
IC50 [1]: 0.05 to 1 µM

Structure (SMILES): CC(C)C[C@H]1CN(C2C3CC4CC2CC(O)(C4)C3)C(=O)O1 (single isomer, unassigned) [Example 13A]
IC50 [1]: 0.05 to 1 µM

Structure (SMILES): CC(C)C[C@H]1CN(C2C3CC4CC2CC(O)(C4)C3)C(=O)O1 (single isomer, unassigned) [Example 13B]
IC50 [1]: > 1 µM

Structure (SMILES): O=C1OC(C2CCC(O)CC2)CN1CC12CC3CC(CC(C3)C1)C2 (single isomer, unassigned) [Example 22B, 3-(1-adamantylmethyl)-5-(4-hydroxycyclohexyl)oxazolidin-2-one]
IC50 [1]: 0.05 to 1 µM

Structure (SMILES): O=C1O[C@@H](c2ccccc2)CN1CC12CC3CC(CC(C3)C1)C2 [Example 1, (S)-3-((1-adamantyl)methyl)-5-phenyloxazolidin-2-one]
IC50 [1]: < 0.05 µM | IC50 [3]: 0.05 to 1 µM

Structure (SMILES): CC(C)C[C@H]1CN(CC23CC4CC(CC(C4)C2)C3)C(=O)O1 [Example 2, (S)-3-((1-adamantyl)methyl)-5-isobutyloxazolidin-2-one]
IC50 [1]: < 0.05 µM | IC50 [3]: 0.05 to 1 µM

Structure (SMILES): O=C1O[C@H](c2ccccc2)CN1CC12CC3CC(CC(C3)C1)C2 [Example 3, (R)-3((1-adamantyl)methyl)-5-phenyloxazolidin-2-one]
IC50 [1]: 0.05 to 1 µM

Structure (SMILES): CC(C)C[C@H]1CN(C23CC4CC(CC(C4)C2)C3)C(=O)O1 [Example 4, (S)-3-(1-adamantyl)-5-isobutyloxazolidin-2-one]
IC50 [1]: < 0.05 µM | IC50 [3]: < 0.05 µM

Structure (SMILES): CC(C)C[C@H]1CN(C2C3CC4CC(C3)CC2C4)C(=O)O1 (stereo partly drawn) [Example 5, (S)-3-(2-adamantyl)-5-isobutyloxazolidin-2-one]
IC50 [1]: < 0.05 µM | IC50 [3]: < 0.05 µM

Structure (SMILES): O=C1O[C@@H](Cc2ccccc2)CN1CC12CC3CC(CC(C3)C1)C2 [Example 6, (S)-5-benzyl-3-((1-adamantyl)methyl)oxazolidin-2-one]
IC50 [1]: 0.05 to 1 µM

Structure (SMILES): O=C1O[C@@H](c2ccccc2Cl)CN1CC12CC3CC(CC(C3)C1)C2 [Example 7, (S)-3-((1-adamantyl)methyl)-5-(2-chlorophenyl)oxazolidin-2-one]
IC50 [1]: < 0.05 µM | IC50 [3]: 0.05 to 1 µM

Structure (SMILES): CC(C)(C)[C@H]1CN(CC23CC4CC(CC(C4)C2)C3)C(=O)O1 [Example 8, (S)-3-((1-adamantyl)methyl)-5-(t-butyl)oxazolidin-2-one]
IC50 [1]: < 0.05 µM | IC50 [3]: < 0.05 µM

Structure (SMILES): CC[C@H]1CN(CC23CC4CC(CC(C4)C2)C3)C(=O)O1 [Example 10, (S)-3-((1-adamantyl)methyl)-5-ethyloxazolidin-2-one]
IC50 [1]: 0.05 to 1 µM

Structure (SMILES): O=C1O[C@@H](c2ccccc2)CN1CC1C2CC3CC(C2)CC1C3 (stereo partly drawn) [Example 11, (S)-3((2-adamantyl)methyl)-5-phenyloxazolidin-2-one]
IC50 [1]: 0.05 to 1 µM

Structure (SMILES): O=C1O[C@@H](c2ccccc2)CN1C1C2CC3CC(C2)CC1C3 (stereo partly drawn) [Example 14, (S)-3-(2-adamantyl)-5-phenyloxazolidin-2-one]
IC50 [1]: 0.05 to 1 µM

Structure (SMILES): O=C1O[C@H](c2ccccc2)CN1C1C2CC3CC(C2)CC1C3 (stereo partly drawn) [Example 15, (R)-3-(2-adamantyl)-5-phenyloxazolidin-2-one]
IC50 [1]: 0.05 to 1 µM

Structure (SMILES): C[C@]1(c2ccccc2)CN(C2C3CC4CC(C3)CC2C4)C(=O)O1 (stereo partly drawn) [Example 16, (S)-3-(2-adamantyl)-5-methyl-5-phenyloxazolidin-2-one]
IC50 [1]: < 0.05 µM | IC50 [3]: < 0.05 µM

Structure (SMILES): O=C1OC(c2ccc(O)cc2)CN1CC12CC3CC(CC(C3)C1)C2 (stereo not shown) [Example 17, 3-(1-adamantylmethyl)-5-(4-hydroxyphenyl)oxazolidin-2-one]
IC50 [1]: 0.05 to 1 µM

Structure (SMILES): O=C1O[C@@H](C2CCCCC2)CN1CC12CC3CC(CC(C3)C1)C2 [Example 18, (S)-3-((1-adamantyl)methyl)-5-cyclohexyloxazolidin-2-one]
IC50 [1]: < 0.05 µM | IC50 [3]: 0.05 to 1 µM

Structure (SMILES): O=C1O[C@@H](C2CCCCC2)CN1CC1C2CC3CC(C2)CC1C3 (stereo partly drawn) [Example 19, (S)-3-((2-adamantyl)methyl)-5-cyclohexyloxazolidin-2-one]
IC50 [1]: 0.05 to 1 µM

Structure (SMILES): O=C1O[C@@H](C2CCCCC2)CN1C1C2CC3CC(C2)CC1C3 (stereo partly drawn) [Example 20, (S)-3-(2-adamantyl)-5-cyclohexyloxazolidin-2-one]
IC50 [1]: < 0.05 µM | IC50 [3]: < 0.05 µM

Structure (SMILES): O=C1O[C@H](C2CCCCC2)CN1C1C2CC3CC(C2)CC1C3 (stereo partly drawn) [Example 21, (R)-3-(2-adamantyl)-5-cyclohexyloxazolidin-2-one]
IC50 [1]: < 0.05 µM | IC50 [3]: < 0.05 µM

Structure (SMILES): CC(C)CC1CCN(CC23CC4CC(CC(C4)C2)C3)C(=O)O1 (stereo not shown) [Example 23, 3((1-adamantyl)methyl)-6-isobutyl-1,3-oxazinan-2-one]
IC50 [1]: 0.05 to 1 µM

Structure (SMILES): O=C1N[C@H](CO)CN1CC12CC3CC(CC(C3)C1)C2 [Example 24, (S)-1-((1-adamantyl)methyl)-4-(hydroxymethyl)imidazolidin-2-one]
IC50 [1]: 0.05 to 1 µM

Structure (SMILES): C[C@@H]1[C@H](c2ccccc2)OC(=O)N1CC12CC3CC(CC(C3)C1)C2 [Example 25, (4R,5S)-3-((1-adamantyl)methyl)-4-methyl-5-phenyloxazolidin-2-one]
IC50 [1]: < 0.05 µM | IC50 [3]: < 0.05 µM

Continued, values first:

IC50 [2]: < 0.05 µM
Structure (SMILES): O=C1OC(c2ccc(Br)cc2)CN1C1C2CC3CC(C2)CC1C3 (racemic) [Example 29, (±)-5-(4-bromophenyl)-3-(2-adamantyl)oxazolidin-2-one]

IC50 [3]: < 0.05 µM | IC50 [2]: < 0.05 µM
Structure (SMILES): CC(C)(C)C1CCN(C2C3CC4CC(C3)CC2C4)C(=O)N1 (racemic) [Example 31, (±)-4-tert-butyl-1-(2-adamantyl)tetrahydropyrimidin-2(1H)-one]

IC50 [2]: < 0.05 µM
Structure (SMILES): O=C1OC(c2cccc(Br)c2)CN1C1C2CC3CC(C2)CC1C3 (racemic) [Example 34, (±)-5-(3-bromophenyl)-3-(2-adamantyl)oxazolidin-2-one]

IC50 [2]: < 0.05 µM
Structure (SMILES): CC(C)CC1(CO)CN(C2C3CC4CC(C3)CC2C4)C(=O)N1 (racemic) [Example 35, (±)-1-(2-adamantyl)-4-(hydroxymethyl)-4-isobutylimidazolidin-2-one]

IC50 [2]: 0.05 to 1 µM
Structure (SMILES): CC(C)CC1(CO)CN(CC23CC4CC(CC(C4)C2)C3)C(=O)N1 (racemic) [Example 36, (±)-1-(1-adamantylmethyl)-4-(hydroxymethyl)-4-isobutylimidazolidin-2-one]

IC50 [3]: 0.05 to 1 µM | IC50 [2]: < 0.05 µM
Structure (SMILES): O=C1OC(c2cccc(-c3ccccc3)c2)CN1C1C2CC3CC(C2)CC1C3 (racemic) [Example 37, (±)-5-(biphenyl-3-yl)-3-(2-adamantyl)oxazolidin-2-one]

IC50 [2]: < 0.05 µM
Structure (SMILES): O=C1OC(c2ccc(-c3ccccc3)cc2)CN1C1C2CC3CC(C2)CC1C3 (racemic) [Example 38, (±)-5-(biphenyl-4-yl)-3-(2-adamantyl)oxazolidin-2-one]

IC50 [1]: 0.05 to 1 µM
Structure (SMILES): CC1CCN(CC23CC4CC(CC(C4)C2)C3)C(=O)O1 (stereo not shown) [Example 26, 3-((1-adamantyl)methyl)-6-methyl-1,3-oxazinan-2-one]

IC50 [1]: < 0.05 µM | IC50 [3]: < 0.05 µM
Structure (SMILES): CC(C)(C)[C@H]1CN(C2C3CC4CC(C3)CC2C4)C(=O)N1 (stereo partly drawn) [Example 27, (S)-1-(2-adamantyl)-4-tert-butylimidazolidin-2-one]

IC50 [3]: 0.05 to 1 µM | IC50 [2]: < 0.05 µM
Structure (SMILES): O=C1N[C@@H](c2ccccc2)CN1C12CC3CC(CC(C3)C1)C2 [Example 30, (S)-1-(1-adamantyl)-4-phenylimidazolidin-2-one]

IC50 [3]: < 0.05 µM | IC50 [2]: < 0.05 µM
Structure (SMILES): O=C1N[C@@H](C2CCCCC2)CN1C1C2CC3CC(C2)CC1C3 (stereo partly drawn) [Example 32, (S)-4-cyclohexyl-1-(2-adamantyl)imidazolidin-2-one]

From US8835426B2, “Cyclic urea and carbamate inhibitors of 11β-hydroxysteroid dehydrogenase 1” (Vitae Pharmaceuticals, Inc., priority 2007, dated 2014)
